This note sets out measurements from PubChem BioAssay (NCI).

Test systems include SF-539 CNS; IGROV1 ovarian; NCI-H23 lung; HT29 colon; RPMI-8226 leukemia; LOX IMVI melanoma; TK-10 renal; MDA-MB-231 breast; HOP-92 NSCLC; SN12C renal.
Assay in all cases: DTP human tumour cell line panel, 48 h

As a reminder, the GI50 is the concentration at which growth is held to half of that of the control. Broadly, the TGI is the concentration at which net growth stops.

The structures appear in SMILES notation. Where “and” joins values, the source holds several entries; their conditions need not be identical. Identical values can stand only once.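 Cultured in 96-well plates, cells were exposed to test compound for 48 hours across five concentrations. The concentration for 50% growth inhibition is given as GI50. The concentration for full growth arrest is given as TGI.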 Where only a bound is given, the exact number is not on record here.

As to `CN(C)C(=O)SC1=C(c2c(Cl)cccc2Cl)C(=O)c2ccccc21`, the GI50 is 9.01 µM in the assay on SF-539 CNS; 4.78 µM in the assay on IGROV1 ovarian; 7.14 µM in the assay with NCI-H23 lung; 3.47 µM in the assay on HT29 colon; 2.2 µM with RPMI-8226 leukemia; 1.74 µM in the assay with LOX IMVI melanoma. In addition, the GI50 was 3.5 µM in the assay with TK-10 renal, 5.6 µM in the assay on MDA-MB-231 breast, 1.96 µM in the assay with HOP-92 NSCLC and 6.18 µM with SN12C renal. The TGI was 22.8 µM in the assay on SF-539 CNS; 11.4 µM in the assay with IGROV1 ovarian; 19 µM in the assay with NCI-H23 lung; 11.9 µM in the assay on HT29 colon; 5.84 µM with RPMI-8226 leukemia; 3.75 µM in the assay with LOX IMVI melanoma. Moreover, the total growth inhibition concentration (TGI) in the assay on TK-10 renal turned out to be 9.64 µM; in the assay on MDA-MB-231 breast it was 13.7 µM; in the assay with HOP-92 NSCLC, 8.31 µM; in the assay with SN12C renal it was 17.7 µM.
Turning to `CN(C)CCCN1c2ccccc2Sc2ccc(Cl)cc21`, the GI50 was 3.22 µM and 11.4 µM in the assay on SF-539 CNS; 11.7 µM and 4.63 µM in the assay with IGROV1 ovarian; 8.92 µM and 13.3 µM in the assay on NCI-H23 lung; 3.26 µM and 3.96 µM in the assay with HT29 colon; 13.6 µM with RPMI-8226 leukemia; 10.8 µM and 10.3 µM in the assay on LOX IMVI melanoma. For the same molecule, the GI50 in the assay with TK-10 renal was 9.64 µM and 6.76 µM; in the assay on MDA-MB-231 breast, 1.99 µM and 2.1 µM; in the assay on HOP-92 NSCLC, 1.82 µM; in the assay on SN12C renal, 3.85 µM and 4.87 µM. Besides, the TGI in the assay on SF-539 CNS is 7.79 µM and 26 µM; in the assay with IGROV1 ovarian, 26.7 µM and 18.4 µM; in the assay with NCI-H23 lung, 22.2 µM and 27.6 µM; with HT29 colon, 10.8 µM and 13.6 µM; with RPMI-8226 leukemia it was 32.6 µM; in the assay on LOX IMVI melanoma it was 23.4 µM and 24.5 µM. The TGI in the assay with TK-10 renal is 22.3 µM and 20.3 µM; in the assay on MDA-MB-231 breast, 5.35 µM and 6.87 µM; in the assay with HOP-92 NSCLC it was 8.71 µM; with SN12C renal it was 14.8 µM and 17.7 µM.
`CN(C)CCCC1(c2ccc(F)cc2)OCc2cc(-c3cncc4ccccc34)ccc21` (stereo not drawn): the GI50 was 1.76 µM in the assay with SF-539 CNS; 2.88 µM with IGROV1 ovarian; 5.73 µM with NCI-H23 lung; 2.36 µM in the assay with HT29 colon; 2.51 µM in the assay with RPMI-8226 leukemia; 1.72 µM in the assay with LOX IMVI melanoma. Besides, the GI50 was 2.83 µM in the assay on TK-10 renal, 2.1 µM with MDA-MB-231 breast, 1.58 µM in the assay with HOP-92 NSCLC and 4.05 µM in the assay with SN12C renal. The TGI in the assay with SF-539 CNS came to 3.29 µM; in the assay on IGROV1 ovarian it was 12.2 µM; in the assay with NCI-H23 lung, 20.1 µM; in the assay with HT29 colon, 8.23 µM; with RPMI-8226 leukemia, 5.96 µM; with LOX IMVI melanoma, 3.27 µM. Also, the TGI was determined as 12.2 µM in the assay on TK-10 renal, 6.57 µM in the assay with MDA-MB-231 breast, 8.81 µM in the assay on HOP-92 NSCLC and 17 µM in the assay on SN12C renal.
For the molecule `Cc1cc(NC(=O)NC(=O)c2ccccc2N(C)C)ccc1Oc1ncc(Br)cn1`, the GI50 in the assay with SF-539 CNS was 0.208 µM; with IGROV1 ovarian, 0.356 µM; with NCI-H23 lung it was 2.51 µM; in the assay with RPMI-8226 leukemia it was 0.517 µM; with LOX IMVI melanoma, 0.582 µM; in the assay with TK-10 renal, 0.984 µM. For the same molecule, the GI50 was 5.5 µM in the assay with HOP-92 NSCLC and 0.578 µM with SN12C renal. For the same molecule, the TGI in the assay on SF-539 CNS is 0.548 µM and 1.03 µM; in the assay on IGROV1 ovarian it was more than 63.1 µM; in the assay on NCI-H23 lung, 53.4 µM; in the assay on HT29 colon, 15.2 µM; in the assay on RPMI-8226 leukemia, 39.4 µM; in the assay with LOX IMVI melanoma, more than 63.1 µM. The TGI in the assay with TK-10 renal was more than 68.1 µM; in the assay with MDA-MB-231 breast, 52.5 µM; in the assay on HOP-92 NSCLC, 46.2 µM; with SN12C renal, more than 100 µM.
In the case of `COc1ccc2cc(-c3c(-c4ccncc4)nc(-c4ccc(S(C)=O)cc4C)n3C)ccc2c1` (stereo not drawn), the GI50 in the assay with SF-539 CNS was more than 25 µM; in the assay on IGROV1 ovarian it was 11.1 µM; in the assay with NCI-H23 lung, more than 25 µM; in the assay with HT29 colon it was 10.6 µM; with RPMI-8226 leukemia, 14.1 µM; in the assay on LOX IMVI melanoma, 16.4 µM. The GI50 in the assay with TK-10 renal was 7.62 µM; in the assay on MDA-MB-231 breast it was more than 25 µM; in the assay with HOP-92 NSCLC, 4.66 µM; with SN12C renal it was 15.7 µM. The TGI in the assay on SF-539 CNS, in the assay with IGROV1 ovarian, in the assay with NCI-H23 lung, in the assay with HT29 colon, in the assay on RPMI-8226 leukemia and with LOX IMVI melanoma was more than 25 µM each time. In addition, the TGI in the assay on TK-10 renal, with MDA-MB-231 breast, in the assay with HOP-92 NSCLC and with SN12C renal was more than 25 µM each time.
Turning to `CC(C)(CO)N=Cc1ccccc1[O-].CC(C)(CO)N=Cc1ccccc1[O-].[Co+2]`, the GI50 in the assay with SF-539 CNS was 66.5 µM; with IGROV1 ovarian, 84.3 µM; in the assay with NCI-H23 lung, 72.7 µM; with HT29 colon it was 100 µM; in the assay on RPMI-8226 leukemia, 30.2 µM; in the assay with LOX IMVI melanoma it was 40.5 µM. For the same molecule, the GI50 was 81.3 µM in the assay with TK-10 renal, more than 74.9 µM with MDA-MB-231 breast, 12.9 µM with HOP-92 NSCLC and more than 96.6 µM in the assay with SN12C renal. In addition, the TGI in the assay with SF-539 CNS was more than 100 µM; in the assay on IGROV1 ovarian, more than 100 µM; with NCI-H23 lung, more than 100 µM; in the assay on HT29 colon, more than 100 µM; with RPMI-8226 leukemia, more than 93 µM; with LOX IMVI melanoma, more than 63.1 µM. For the same molecule, the TGI was more than 100 µM in the assay with TK-10 renal, more than 100 µM in the assay with MDA-MB-231 breast, 95.7 µM with HOP-92 NSCLC and more than 100 µM in the assay on SN12C renal.
For `COC(=O)[C@H](Cc1ccccc1)NC(=O)c1csc([C@@H](C[C@H](C(C)C)N(C)C(=O)[C@@H](NC(=O)[C@H]2CCCN2C)C2CC2)OC(C)=O)n1`, the GI50 with SF-539 CNS was 0.29 µM; in the assay on IGROV1 ovarian it was 0.327 µM; in the assay with NCI-H23 lung it was 1.46 µM; in the assay with HT29 colon it was 0.14 µM; in the assay with RPMI-8226 leukemia it was 0.224 µM; in the assay with LOX IMVI melanoma, 0.301 µM. Also, the GI50 in the assay on TK-10 renal was 4.18 µM; in the assay on MDA-MB-231 breast it was 0.577 µM; in the assay on HOP-92 NSCLC, 0.463 µM; in the assay on SN12C renal, 0.548 µM. Moreover, the total growth inhibition concentration (TGI) in the assay with SF-539 CNS was 1.55 µM; in the assay with IGROV1 ovarian it was more than 33.3 µM; in the assay with NCI-H23 lung, more than 33.3 µM; in the assay on HT29 colon it was more than 33.3 µM; in the assay with RPMI-8226 leukemia it was more than 33.3 µM; with LOX IMVI melanoma it was more than 33.3 µM. The TGI with TK-10 renal is more than 33.3 µM; in the assay on MDA-MB-231 breast, more than 12.9 µM; with HOP-92 NSCLC it was more than 9.56 µM; in the assay with SN12C renal it was more than 33.3 µM.
